Measurements published in US10150743B2, “Carboxylic acid compounds” (priority 2012, dated 2018).

Columns and labels:
human TLR8 = human TLR8 (Homo sapiens (Human), UniProt Q9NR97); experiment: Human TLR8 assay (TLR8/NF-kB/SEAPorter HEK 293 Cell Line); assay type: cell-based; conditions: SEAP induction, overnight incubation at 37° C., 0.1% DMSO; read-out: TLR8 pEC50 (converted)
Description: TLR8/NF-kB/SEAPorter™ HEK 293 Cell Line (Imgenex Corporation) is a stably co-transfected cell line which expresses full-length human TLR8 and the secreted alkaline phosphatase (SEAP) reporter gene under the transcriptional control of an NF-κB response element. TLR8 expression in this cell line has been tested by flow cytometry. Transfectants with stable expression were selected using the antibiotic blasticidin and geneticin. TLR signaling leads to the translocation of NF-κB and activation of the promoter results in expression of the SEAP gene. TLR8-specific activation was assessed by determining the level of SEAP produced following overnight incubation of the cells at 37° C. with the standard compound in the presence of 0.1% (v/v) dimethylsulfoxide (DMSO). Concentration dependent induction of SEAP production by compounds was expressed as the concentration of compound which produced half of the maximal level of SEAP induction for that compound (EC50).

hERG ion channel = hERG ion channel (Homo sapiens (Human), UniProt Q12809); experiment: hERG Analysis - Method 1 (IONWORKS HT, CHO-hERG cells); assay type: cell-based; conditions: ~21° C.
Sequence of hERG ion channel (Q12809 whole entry): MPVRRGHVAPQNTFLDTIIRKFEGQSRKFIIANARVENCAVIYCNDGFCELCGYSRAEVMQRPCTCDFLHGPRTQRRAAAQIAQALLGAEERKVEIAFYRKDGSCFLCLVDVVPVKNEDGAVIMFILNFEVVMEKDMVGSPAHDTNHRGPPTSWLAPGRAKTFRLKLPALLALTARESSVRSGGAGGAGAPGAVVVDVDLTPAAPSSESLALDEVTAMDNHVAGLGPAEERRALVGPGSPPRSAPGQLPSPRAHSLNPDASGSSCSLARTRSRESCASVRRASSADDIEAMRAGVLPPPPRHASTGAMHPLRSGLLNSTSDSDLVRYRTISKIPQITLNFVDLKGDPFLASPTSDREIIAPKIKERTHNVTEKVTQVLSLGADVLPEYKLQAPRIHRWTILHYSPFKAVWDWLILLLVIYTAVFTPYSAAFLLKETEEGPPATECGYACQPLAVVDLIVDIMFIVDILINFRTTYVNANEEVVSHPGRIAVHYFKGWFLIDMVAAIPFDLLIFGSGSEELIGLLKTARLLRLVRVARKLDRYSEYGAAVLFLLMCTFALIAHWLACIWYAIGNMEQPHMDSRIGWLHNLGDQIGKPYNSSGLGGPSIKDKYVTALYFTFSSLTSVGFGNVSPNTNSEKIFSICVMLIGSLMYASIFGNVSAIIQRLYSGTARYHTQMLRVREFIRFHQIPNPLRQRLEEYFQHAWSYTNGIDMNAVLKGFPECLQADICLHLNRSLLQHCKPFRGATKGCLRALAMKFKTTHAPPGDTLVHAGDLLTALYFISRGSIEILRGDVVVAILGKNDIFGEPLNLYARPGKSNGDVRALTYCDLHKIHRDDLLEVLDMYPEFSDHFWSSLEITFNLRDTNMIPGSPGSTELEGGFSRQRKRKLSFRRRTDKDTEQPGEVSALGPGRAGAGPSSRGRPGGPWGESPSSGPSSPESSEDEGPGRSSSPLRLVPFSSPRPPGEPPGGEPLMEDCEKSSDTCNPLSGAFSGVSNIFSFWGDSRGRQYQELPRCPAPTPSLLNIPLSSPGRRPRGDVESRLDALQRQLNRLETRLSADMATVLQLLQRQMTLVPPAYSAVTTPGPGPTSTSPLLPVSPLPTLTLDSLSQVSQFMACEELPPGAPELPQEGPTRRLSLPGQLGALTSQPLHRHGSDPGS
Description: The hERG-expressing Chinese hamster ovary K1 (CHO) cells described by (Persson, Carlsson, Duker, & Jacobson, 2005) were grown to semi-confluence at 37° C. in a humidified environment (5% CO2) in F-12 Ham medium containing L-glutamine, 10% foetal calf serum (FCS) and 0.6 mg/mL hygromycin (all available from Sigma-Aldrich). Prior to use, the monolayer was washed using a pre-warmed (37° C.) 3 mL aliquot of Versene 1:5,000 (Invitrogen) After aspiration of this solution the flask was incubated at 37° C. in an incubator with a further 2 mL of Versene 1:5,000 for a period of 6 minutes. Cells were then detached from the bottom of the flask by gentle tapping and 10 mL of Dulbecco's Phosphate-Buffered Saline containing calcium (0.9 mM) and magnesium (0.5 mM) (PBS; Invitrogen) was then added to the flask and aspirated into a 15 mL centrifuge tube prior to centrifugation (50 g, for 4 mins). The resulting supernatant was discarded and the pellet gently re-suspended in 3 mL of PBS. A 0.5 mL aliquot of cell suspension was removed and the number of viable cells (based on trypan blue exclusion) was determined in an automated reader (Cedex; Innovatis) so that the cell re-suspension volume can be adjusted with PBS to give the desired final cell concentration. It is the cell concentration at this point in the assay that is quoted when referring to this parameter. CHO-Kv1.5 cells, which were used to adjust the voltage offset on IONWORKS™ HT, were maintained and prepared for use in the same way.
The principles and operation of this device have been described by (Schroeder, Neagle, Trezise, & Worley, 2003). Briefly, the technology is based on a 384-well plate (PATCHPLATE™) in which a recording was attempted in each well by using suction to position and hold a cell on a small hole separating two isolated fluid chambers. Once sealing had taken place, the solution on the underside of the PATCHPLATE™ was changed to one containing amphotericin B. This permeablises the patch of cell membrane covering the hole in each well and, in effect, allowed a perforated, whole-cell patch clamp recording to be made.
A β-test IONWORKS™ HT from Essen Instrument was used. […] (˜21° C.), as follows. The reservoir in the “Buffer” position was loaded with 4 mL of PBS and that in the “Cells” position with the CHO-hERG cell suspension described above. A 96-well plate (V-bottom, Greiner Bio-one) containing the compounds to be tested (at 3-fold above their final test concentration) was placed in the “Plate 1” position and a PATCHPLATE™ was clamped into the PATCHPLATE™ station. […]

CT26 mouse tumour cells = experiment: Survival studies in CT26, a murine syngeneic colon carcinoma tumour model; assay type: in vivo; conditions: Balb/C mice; RT 2Gy x5 plus 30 mg/kg once a week p.o.; vs control or RT; FIG. 12
Description: Experiments were conducted on female mice (Balb/C genotype, at least 5 weeks old). CT26 mouse tumour cells (CRL-2638) were purchased from ATCC. CT26 mouse tumour cells (1×10^6) were implanted subcutaneously in the flank of mice on day 0. Mice in radiotherapy alone (RT) group and combination group were anesthetized and received radiation therapy (2Gy) at days 7, 8, 9, 10, and 11. Mice in combination group were also treated with a compound of Example 3 (30 mg/kg once a week) administered orally (p.o.) or Example 4 (5 mg/kg once a week) administered intravenously (i. v.) on days 7, 14, 22, and 27. Tumour volumes were assessed at least twice weekly by bilateral vernier caliper measurements. Survival period was determined by the time taken for tumours to reach 4 times the volume at the time of treatment.

Sequence of human TLR8 (Q9NR97 27-1041): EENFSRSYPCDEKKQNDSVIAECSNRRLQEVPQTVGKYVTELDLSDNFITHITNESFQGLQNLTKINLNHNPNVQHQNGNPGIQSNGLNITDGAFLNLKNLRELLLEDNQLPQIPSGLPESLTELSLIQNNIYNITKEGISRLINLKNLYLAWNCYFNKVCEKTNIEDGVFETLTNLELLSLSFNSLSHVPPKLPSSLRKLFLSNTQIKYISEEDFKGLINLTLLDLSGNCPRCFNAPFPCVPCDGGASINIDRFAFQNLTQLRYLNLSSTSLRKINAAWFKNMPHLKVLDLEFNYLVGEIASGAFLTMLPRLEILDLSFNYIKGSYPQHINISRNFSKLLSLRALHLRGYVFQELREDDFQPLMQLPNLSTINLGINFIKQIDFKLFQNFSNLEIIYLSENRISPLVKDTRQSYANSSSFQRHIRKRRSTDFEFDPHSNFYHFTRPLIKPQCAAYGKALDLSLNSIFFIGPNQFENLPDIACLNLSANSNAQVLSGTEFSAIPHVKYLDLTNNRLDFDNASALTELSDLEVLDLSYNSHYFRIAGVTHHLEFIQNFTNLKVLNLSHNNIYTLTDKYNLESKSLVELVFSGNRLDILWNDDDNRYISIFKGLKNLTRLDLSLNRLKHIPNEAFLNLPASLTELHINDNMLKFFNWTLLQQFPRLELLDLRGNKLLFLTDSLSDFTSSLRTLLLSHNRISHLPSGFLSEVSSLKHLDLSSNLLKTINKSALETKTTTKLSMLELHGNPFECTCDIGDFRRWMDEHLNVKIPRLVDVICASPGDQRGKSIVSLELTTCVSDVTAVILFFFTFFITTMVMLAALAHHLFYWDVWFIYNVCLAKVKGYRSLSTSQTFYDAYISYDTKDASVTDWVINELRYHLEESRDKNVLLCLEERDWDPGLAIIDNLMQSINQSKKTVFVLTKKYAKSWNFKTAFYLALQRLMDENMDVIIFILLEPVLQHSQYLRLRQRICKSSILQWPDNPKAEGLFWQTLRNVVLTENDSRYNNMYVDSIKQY

Compound: CCC[C@@H](CCO)Nc1nc(N)nc(C)c1Cc1ccc(CN(CC(=O)O)CC(F)F)cc1OC [Example 3, (S)-2-((4-((2-amino-4-(1-hydroxyhexan-3-ylamino)-6-methylpyrimidin-5-yl)methyl)-3-methoxybenzyl)(2,2-difluoroethyl)amino)acetic acid]
- EC50 (human TLR8): > 10 µM
- IC50 (hERG ion channel): > 33 µM
- Survival period (time for tumours to reach 4 times the volume at treatment) (CT26 mouse tumour cells): survived significantly longer
